Test results from US7807703B2, “Substituted aryl ketones” (Bayer CropScience AG, priority 2002, dated 2010).

tested on: weeds; experiment: Post-emergence test (Example B), herbicidal activity; assay type: in vivo; conditions: test plants of 5-15 cm sprayed, rated after three weeks
Description: (§1) • Solvent: 5 parts by weight of acetone • Emulsifier: 1 part by weight of alkylaryl polyglycol ether
(§2) To produce a suitable preparation of active compound, 1 part by weight of active compound is mixed with the stated amount of solvent, the stated amount of emulsifier is added and the concentrate is diluted with water to the desired concentration.
Test plants of a height of 5-15 cm are sprayed with the preparation of active compound such that the particular amounts of active compound desired are applied per unit area. The concentration of the spray liquor is chosen such that the particular amounts of active compound desired are applied in 1000 l of water/ha.
After three weeks, the degree of damage to the plants is rated in % damage in comparison to the development of the untreated control.
The figures denote: • 0%=no effect (like untreated control) • 100%=total destruction

Row | SMILES | activity against weeds (degree of damage)
1 | CS(=O)(=O)NCCOc1c(Cl)ccc(C(=O)C2C(=O)CCCC2=O)c1Cl [Example 5] | strong activity
2 | CCS(=O)(=O)NCCOc1c(Cl)ccc(C(=O)C2C(=O)CCCC2=O)c1Cl [Example 4] | strong activity
3 | CCn1ncc(C(=O)c2ccc(Cl)c(OCCNS(=O)(=O)CC)c2Cl)c1O [Example 2, 4-[2,4-dichloro-3-(N-ethylsulphonylaminoethoxy)benzoyl]-1-ethyl-5-hydroxypyrazole] | strong activity
4 | CCn1ncc(C(=O)c2ccc(Cl)c(OCCNS(=O)(=O)c3ccc(C)cc3)c2Cl)c1O [Example 3] | strong activity

tested on: weeds; experiment: Pre-emergence test (Example A), herbicidal activity; assay type: in vivo; conditions: soil sprayed 24 hours after sowing, rated after three weeks
Description: as §1, §2
Seeds of the test plants are sown in normal soil. After 24 hours, the soil is sprayed with the preparation of active compound such that the particular amount of active compound desired is applied per unit area. The concentration of active compound in the spray liquor is chosen such that the particular amount of active compound desired is applied in 1000 liters of water per hectare.
After three weeks, the degree of damage to the plants is rated in % damage in comparison to the development of the untreated control. The figures denote: • 0%=no effect (like untreated control) • 100%=total destruction

Row | SMILES | activity against weeds (degree of damage)
5 | CCn1ncc(C(=O)c2ccc(Cl)c(OCCNS(C)(=O)=O)c2Cl)c1O [Example 6] | strong activity
6 | CS(=O)(=O)NCCOc1c(Cl)ccc(C(=O)C2C(=O)CCCC2=O)c1Cl [Example 5] | strong activity
7 | CCS(=O)(=O)NCCOc1c(Cl)ccc(C(=O)C2C(=O)CCCC2=O)c1Cl [Example 4] | strong activity
8 | CCn1ncc(C(=O)c2ccc(Cl)c(OCCNS(=O)(=O)CC)c2Cl)c1O [Example 2, 4-[2,4-dichloro-3-(N-ethylsulphonylaminoethoxy)benzoyl]-1-ethyl-5-hydroxypyrazole] | strong activity

tested on: not listed separately; experiment: log P determination by reversed-phase HPLC (EEC Directive 79/831 Annex V.A8; acidic or neutral mobile phase); assay type: physicochemical; conditions: HPLC reversed-phase C18, 43° C.; acidic range: 0.1% aqueous phosphoric acid, acetonitrile gradient (marked a))
Outline: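 Reversed-phase C18 HPLC per EEC Directive 79/831 Annex V.A8 at 43° C. Linear gradient of 10% to 90% acetonitrile, run against 0.1% aqueous phosphoric acid for the acidic range (a) or 0.01 molar aqueous phosphate buffer for the neutral range (b).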

Row | SMILES | logP
9 | CCn1ncc(C(=O)c2ccc(Cl)c(OCCNS(C)(=O)=O)c2Cl)c1O [Example 6] | logP = 1.65^a)
10 | CS(=O)(=O)NCCOc1c(Cl)ccc(C(=O)C2C(=O)CCCC2=O)c1Cl [Example 5] | logP = 2.16^a)
11 | CCS(=O)(=O)NCCOc1c(Cl)ccc(C(=O)C2C(=O)CCCC2=O)c1Cl [Example 4] | logP = 2.36^a)
12 | CCN(Cc1c(S(C)(=O)=O)ccc(C(=O)c2cnn(CC)c2O)c1Cl)OC [Example 149] | logP = 2.16^a)
13 | CCn1ncc(C(=O)c2ccc(Cl)c(OCCNS(=O)(=O)c3ccc(C)cc3)c2Cl)c1O [Example 3] | (I-2) logP = 2.74^a)
14 | CCn1ncc(C(=O)c2ccc(Cl)c(OCCNS(=O)(=O)CCl)c2Cl)c1O [Example 8] | logP = 2.05^a)

same assay, conditions: HPLC, reversed-phase C18, 43° C.; acidic range a): 0.1% aqueous phosphoric acid, acetonitrile, linear gradient 10% to 90% acetonitrile

Row | SMILES | logP
15 | CCON(Cc1c(S(C)(=O)=O)ccc(C(=O)C2C(=O)CCC(C)(C)C2=O)c1Cl)CC1CCOC1 (stereo not drawn) [Example 446] | (I-2) logP = 3.60^a)
16 | COCCON(C)Cc1c(S(C)(=O)=O)ccc(C(=O)C2C(=O)CCC(C)(C)C2=O)c1Cl (stereo not drawn) [Example 432] | (I-2) logP = 3.22^a)
17 | CCON(C)Cc1c(S(C)(=O)=O)ccc(C(=O)c2cnn(CC)c2O)c1Cl [Example 413] | logP = 2.09^a)
18 | CC(C)ON(Cc1c(S(C)(=O)=O)ccc(C(=O)c2cnn(C)c2O)c1Cl)C(C)C [Example 400] | logP = 2.81^a)
19 | CS(=O)(=O)c1ccc(C(=O)C2C(=O)CCCC2=O)c(Cl)c1CNOC1CCCC1 [Example 401] | (I-2) logP = 3.07^a)
20 | CN(Cc1c(Cl)ccc(C(=O)c2cnn(C)c2O)c1Cl)S(C)(=O)=O [Example 457] | logP = 1.44^a)
21 | COc1c(C(=O)c2cnn(C)c2O)ccc(Cl)c1CN(C)S(C)(=O)=O [Example 471] | logP = 1.55^a)
22 | CON(Cc1c(S(C)(=O)=O)ccc(C(=O)C2C(=O)CCCC2=O)c1Cl)C1CCCOC1 (stereo not drawn) [Example 411] | (I-2) logP = 2.74^a)
23 | CON(Cc1cccnc1)Cc1c(S(C)(=O)=O)ccc(C(=O)c2cnn(C)c2O)c1Cl [Example 386] | (I-2) logP = 0.64^a)
24 | CCn1ncc(C(=O)c2ccc(S(C)(=O)=O)c(CN(CC3CCOC3)OC3CCCC3)c2Cl)c1O (stereo not drawn) [Example 417] | (I-2) logP = 2.76^a)
25 | CCn1ncc(C(=O)c2ccc(S(C)(=O)=O)c(CN(OC)C3CCCOC3)c2Cl)c1O (stereo not drawn) [Example 412] | (I-2) logP = 2.01^a)
26 | CCn1ncc(C(=O)c2ccc(S(C)(=O)=O)c(CN(OC)C(C)C3CC3)c2Cl)c1O (stereo not drawn) [Example 373] | (I-2) logP = 2.94^a)
27 | CCONCc1c(Cl)ccc(C(=O)c2cnn(CC)c2O)c1OC [Example 448] | logP = 3.60^a)
28 | CCON(Cc1c(S(C)(=O)=O)ccc(C(=O)c2cnn(C)c2O)c1Cl)CC1CCOC1 (stereo not drawn) [Example 427] | (I-2) logP = 1.90^a)
29 | CN(Cc1c(S(C)(=O)=O)ccc(C(=O)C2C(=O)CCCC2=O)c1Cl)S(C)(=O)=O [Example 454] | logP = 1.84^a)
30 | CCN(Cc1c(Cl)ccc(C(=O)C2C(=O)CCC(C)(C)C2=O)c1OC)S(C)(=O)=O (stereo not drawn) [Example 465] | (I-2) logP = 3.21^a)
31 | CCN(Cc1c(Cl)ccc(C(=O)C2C(=O)CCCC2=O)c1OC)S(C)(=O)=O [Example 464] | logP = 2.47^a)
32 | CCN(Cc1c(S(C)(=O)=O)ccc(C(=O)C2C(=O)CCC(C)(C)C2=O)c1Cl)OC(C)C (stereo not drawn) [Example 403] | (I-2) logP = 4.36^a)
33 | Cn1ncc(C(=O)c2ccc(Cl)c(OCCNS(C)(=O)=O)c2Cl)c1O [Example 353] | logP = 1.36^a)

same assay, conditions: HPLC, reversed-phase C 18, 43° C.; acidic range: 0.1% aqueous phosphoric acid, acetonitrile (marked a) or acidic)

Row | SMILES | log P (acidic)
34 | COC(=O)c1ccc(S(C)(=O)=O)c(CN(OC)C(=O)C2CC2)c1Cl [VIII-52] | logPacidic = 2.02
35 | C=CCN(Cc1c(S(C)(=O)=O)ccc(C(=O)OC)c1Cl)OC [VIII-35] | logPacidic = 2.87
36 | COC(=O)c1ccc(S(C)(=O)=O)c(CN(OC)C2CCOC2)c1Cl (stereo not drawn) [VIII-58] | logPacidic = 2.17

same assay, conditions: HPLC, reversed-phase C 18, 43° C.; mobile phase range not marked

Row | SMILES | logP (HPLC, mobile phase not marked) | log P
37 | CCN(Cc1c(S(C)(=O)=O)ccc(C(=O)c2cnn(CC)c2O)c1Cl)OC [Example 309] | 2.16 | –
38 | CCn1ncc(C(=O)c2ccc(S(C)(=O)=O)c(CN(C)OC)c2Cl)c1O [Example 304] | 1.78 | –
39 | CONCc1c(S(C)(=O)=O)ccc(C(=O)OC)c1Cl [VIII-10] | – | logP = 1.69

same assay, conditions: reversed-phase C18 HPLC column; HPLC reversed-phase C18, 43° C.; acidic range: 0.1% aqueous phosphoric acid, acetonitrile gradient (marked a)); read-out: logP

Row | SMILES | chromatographic logP
40 | CCn1ncc(C(=O)c2ccc(Cl)c(OCCNS(=O)(=O)CC)c2Cl)c1O [Example 2, 4-[2,4-dichloro-3-(N-ethylsulphonylaminoethoxy)benzoyl]-1-ethyl-5-hydroxypyrazole] | 1.86

same assay, conditions: reversed-phase C18 HPLC column; HPLC, reversed-phase C 18, 43° C.; acidic range: 0.1% aqueous phosphoric acid, acetonitrile (marked a) or acidic); read-out: log P (acidic)

Row | SMILES | chromatographic logP
41 | CON(Cc1c(S(C)(=O)=O)ccc(C(=O)O)c1Cl)C(C)C [II-3, 2-chloro-4-methylsulphonyl-3-(N-methoxy-N-(1-methylethyl)aminomethyl)benzoic acid] | 2.09

same assay, conditions: reversed-phase C18 HPLC column; HPLC, reversed-phase C 18, 43° C.; mobile phase range not marked; read-out: log P

Row | SMILES | chromatographic logP
42 | CON(C)Cc1c(Cl)ccc(C(=O)O)c1Cl [II-1, 2,4-dichloro-3-(N-methoxy-N-methylaminomethyl)benzoic acid] | 1.99
